Measured values from PMC4890005, “Newly identified motifs in Candida albicans Cdr1 protein nucleotide binding domains are pleiotropic drug resistance subfamily-specific and functionally asymmetric” (Scientific Reports, 2016).

Key:
[1] = tested on: Nc1ncnc2c1ncn2[C@@H]1O[C@H](COP(=O)(O)OP(=O)(O)OP(=O)(O)O)[C@@H](O)[C@H]1O; experiment: cells, lysate or membranes; settings: 30 °C, Mg-ATP, GFP-tagged wild type
Description: oligomycin-sensitive ATPase, Pi release, plasma membrane fraction; Lineweaver-Burk on Cdr1p (Cdr1p-GFP)

Cdr1p (Cdr1p-GFP) [2] = biological target: T1, Cdr1p (Cdr1p-GFP) (Candida albicans, UniProt Q5ANA3, DEL903-903); experiment: cell-based
T1 construct: gene CDR1
Description: (§1) R6G binding, from drug transport kinetics of overexpressing yeast (method not detailed) on Cdr1p (Cdr1p-GFP)

Cdr1p (Cdr1p-GFP) [3] = biological target: T2, Cdr1p (Cdr1p-GFP) (Candida albicans, UniProt Q5ANA3); experiment: R6G binding, from drug transport kinetics of overexpressing yeast (method not detailed); assay type: cell-based
T2 construct: gene CDR1; plasmid pPSCDR1-GFP integrated at PDR5 locus of S. cerevisiae AD1-8u-; plasma membrane fractions or cells

Cdr1p (Cdr1p-GFP) [4] = biological target: T3, Cdr1p (Cdr1p-GFP) (Candida albicans, UniProt Q5ANA3, DEL905-905); experiment: cell-based
T3 construct: gene CDR1
Description: as §1

Row | Compound | Km [1] | Vmax [1] | Kd (Cdr1p (Cdr1p-GFP) [2]) | Kd (Cdr1p (Cdr1p-GFP) [3]) | Kd (Cdr1p (Cdr1p-GFP) [4])
1 | Cdr1p (Cdr1p-GFP) (Candida albicans SC5314) | 2.1 ± 0.5 mM | 0.105 µmol/min/mg |  |  | 
2 | CCN=c1cc2oc3cc(NCC)c(C)cc3c(-c3ccccc3C(=O)OCC)c-2cc1C [Rhodamine 6G] |  |  | 11.9 ± 1.9 µM | 9 ± 1.8 µM | 25 ± 2 µM
